Patent publication US20160319277A1, “METHODS OF IMPROVED PROTEIN PRODUCTION USING MIRNAs AND SIRNAs” (THE JOHNS HOPKINS UNIVERSITY, priority 2015, published 2016)

Tested on: HEK-CMV-Luc2-Hygro cells
Experiment: High-throughput genome-wide siRNA screen and validation screen for luciferase expression
Type: cell-based, human
Details: primary screen, 72 h; for per_cell / VIA: Table 3; for per_cell: per cell luciferase yield relative to negative control; for VIA: viable cell density as % of negative control; for Viable cell density (%) / per cell luciferase yield (%): Table 4, negative control = 100%
Procedure: The Silencer Select™ Human genome siRNA library (Ambion), which targets 21,585 human genes with 3 siRNAs per gene, was used for screening. Each siRNA is arrayed in an individual well (Corning 3570, 384 well, white, solid bottom plates). The transfection was done in duplicates: 0.8 pmol of each siRNA was spotted to a well of a 384-well plate (Corning) and 20 μL of serum-free DMEM containing 0.07 μL of Lipofectamine™ RNAiMax (Life Technologies) was then added to each well. This lipid-siRNA mixture was incubated at ambient temperature for 30 min prior to addition of 4000 cells in 20 μL of DMEM containing 20% FBS (Gibco). After incubating the transfected cells at 37° C. in 5% CO2 for 72 hours, 20 μL of ONE-Glo™ Reagent (Promega) was added to one set of replicates for ‘overall luciferase yield’ quantification and 20 μL of CellTiter-Glo™ Reagent (Promega) was added to the second set of replicates for ‘viable cell density’ measurement. All plates were incubated at room temperature for 20 minutes to stabilize the luminescent signal and the signal was then measured with PerkinElmer Envision 2104 Multilabel™ plate reader.
The 56 genes which got targeted by at least two independent siRNAs (out of three) resulting in enhanced luciferase production with MAD-based z-score>3 from the primary screen were subjected to validation screen using 3 additional Silencer™ siRNAs (Ambion) with different sequences from those used in the primary screen. […] The transfection and assay processes were-the same as the primary genome-wide screen. Data visualization was performed in R computational environment (available on the World Wide Web at R-project.org/) by using ‘hexbin’ and ‘ggplot2’ packages.
The screen generated end-point data for ‘overall luciferase yield’ and ‘viable cell density’ in each well. For each plate, the median value of the negative control wells was set as 100% and was used to normalize corresponding sample wells. The ‘overall luciferase yield’ and ‘viable cell density’ were exported as % of negative control and the median absolute deviation (MAD)-based z-score was calculated for each sample.

59 (AGAUCUUUGUCAAGGUGUATT; chemistry not given here; listed as Homo sapiens) [compound 59]
per_cell: 153.4 | VIA: 96.26

60 (GGCGAAUGCUCCUGACUAATT; chemistry not given here; listed as Homo sapiens) [compound 60]
per_cell: 157 | VIA: 103.9

61 (GGACGGAAGCGAAAAUCGATT; chemistry not given here; listed as Homo sapiens) [compound 61]
per_cell: 216.2 | VIA: 71.47

62 (AGGUCAAUGUGACUUUCCATT; chemistry not given here; listed as Homo sapiens) [compound 62]
per_cell: 161.8 | VIA: 105

63 (CCUGGACAGUUUGAAGCAATT; chemistry not given here; listed as Homo sapiens) [compound 63]
per_cell: 174.9 | VIA: 88.01

64 (GAUCGUUUGAGAGAACAAATT; chemistry not given here; listed as Homo sapiens) [compound 64]
per_cell: 210.3 | VIA: 77.11

65 (GCCUAGGAGUUAUCCUCUATT; chemistry not given here; listed as Homo sapiens) [compound 65]
per_cell: 137.6 | VIA: 112.2

66 (GCAACAGAAUCGAGCAAGATT; chemistry not given here; listed as Homo sapiens) [compound 66]
per_cell: 154.3 | VIA: 105.6

67 (GGAUGACGAGCUGAACUUUTT; chemistry not given here; listed as Homo sapiens) [compound 67]
per_cell: 140.1 | VIA: 113.4

68 (CAGGUAGUGUAAGCCCUCATT; chemistry not given here; listed as Homo sapiens) [compound 68]
per_cell: 303 | VIA: 66.87

69 (CCCUCCUACUAUUACCCGUTT; chemistry not given here; listed as Homo sapiens) [compound 69]
per_cell: 163 | VIA: 96.87

70 (GAUUAUCCUUGUACUUUGATT; chemistry not given here; listed as Homo sapiens) [compound 70]
per_cell: 141.8 | VIA: 101.9

71 (GAUUACUUCUUGACUAUCATT; chemistry not given here; listed as Homo sapiens) [compound 71]
per_cell: 150.8 | VIA: 123.2

72 (GCUCCUCUGUUACCACAGATT; chemistry not given here; listed as Homo sapiens) [compound 72]
per_cell: 179.3 | VIA: 91.53

73 (GUCCGAGUGUGGUUCUGUATT; chemistry not given here; listed as Homo sapiens) [compound 73]
per_cell: 180.4 | VIA: 85.82

74 (CUUCGACAGUACUUCCGGATT; chemistry not given here; listed as Homo sapiens) [compound 74]
per_cell: 161.6 | VIA: 104

75 (GCUCAUCGACAUCAAAGUUTT; chemistry not given here; listed as Homo sapiens) [compound 75]
per_cell: 170.1 | VIA: 97.01

76 (CUUUUAAUGUUAAACUACATT; chemistry not given here; listed as Homo sapiens) [compound 76]
per_cell: 133.6 | VIA: 111

77 (CAAUGGAACAAUCAAAGUUTT; chemistry not given here; listed as Homo sapiens) [compound 77]
per_cell: 180.8 | VIA: 89.61

78 (CGGAAUCAAUGAUCCUGUATT; chemistry not given here; listed as Homo sapiens) [compound 78]
per_cell: 212.7 | VIA: 71.39

79 (AAGUCAACAUAGCCCGAAATT; chemistry not given here; listed as Homo sapiens) [compound 79]
per_cell: 145.7 | VIA: 111.5

80 (CAAUGAUUCUUACCCUCAATT; chemistry not given here; listed as Homo sapiens) [compound 80]
per_cell: 257.9 | VIA: 77.17

81 (GUUUCAUCUGGGUUCGCUATT; chemistry not given here; listed as Homo sapiens) [compound 81]
per_cell: 233.6 | VIA: 62.66

82 (GUCCUAUCACCGUAUCUUATT; chemistry not given here; listed as Homo sapiens) [compound 82]
per_cell: 266.6 | VIA: 55.96

83 (GCGGAAAAGGUAUCCCUCATT; chemistry not given here; listed as Homo sapiens) [compound 83]
per_cell: 184.6 | VIA: 80.17

84 (GGCUGUACAUAGUCCUUUUTT; chemistry not given here; listed as Homo sapiens) [compound 84]
per_cell: 238.5 | VIA: 66.39

85 (CUGCCGCAACAAUAAGAAATT; chemistry not given here; listed as Homo sapiens) [compound 85]
per_cell: 171.2 | VIA: 82.95

86 (CAUUGGUUUUGAUGAGUAUTT; chemistry not given here; listed as Homo sapiens) [compound 86]
per_cell: 226.7 | VIA: 64.38

87 (GGUGUAAUAAUGUCCUUUATT; chemistry not given here; listed as Homo sapiens) [compound 87]
per_cell: 188.1 | VIA: 79.39

88 (GAGCAGAGAUCAUAACCAATT; chemistry not given here; listed as Homo sapiens) [compound 88]
per_cell: 141.1 | VIA: 108.2

89 (GGAUCACGCAGCUCAAGAUTT; chemistry not given here; listed as Homo sapiens) [compound 89]
per_cell: 161.6 | VIA: 91.54

90 (GGUGCUCUCGGUUGCACAATT; chemistry not given here; listed as Homo sapiens) [compound 90]
per_cell: 187.4 | VIA: 82.33

91 (CAGCAAACCUUUGACCAGATT; chemistry not given here; listed as Homo sapiens) [compound 91]
per_cell: 277.5 | VIA: 55.4

92 (CCAGUUCGACCUGAACAAATT; chemistry not given here; listed as Homo sapiens) [compound 92]
per_cell: 176 | VIA: 85.75

93 (CAGCCUCACCAAGCACAAATT; chemistry not given here; listed as Homo sapiens) [compound 93]
per_cell: 167.4 | VIA: 85.87

94 (AGAGGCUACUUUGAAAACATT; chemistry not given here; listed as Homo sapiens) [compound 94]
Viable cell density (%): 66.938% | per cell luciferase yield (%): 227.583%

95 (CAAGUCACCUGUUACCUCATT; chemistry not given here; listed as Homo sapiens) [compound 95]
Viable cell density (%): 88.955% | per cell luciferase yield (%): 171.805%

96 (ACACUCUUGUGGUCAAGAATT; chemistry not given here; listed as Homo sapiens) [compound 96]
Viable cell density (%): 73.809% | per cell luciferase yield (%): 227.741%
